Drawing on ChEMBL document CHEMBL1201862, “PubChem BioAssay data set” (2004), this text covers IC50, AC50 and EC50 for four molecules.

In test [1] the target is Phosphoethanolamine/phosphocholine phosphatase (Homo sapiens, UniProt Q8TCT1). Put plainly: SAR assay for compounds that inhibit PHOSPHO1. [Related pubchem assays (depositor defined):AID1545, AID1565, AID1574].
The target in the next test is Phosphomannomutase 2 (Homo sapiens, UniProt O15305). In words: Counter screen SAR assay for PMM2 inhibitors via a fluorescence intensity assay. [Related pubchem assays (depositor defined):AID1545, AID1574]. (In general: A counterscreen serves to expose hits that act by an unwanted route or on another target.)
The nature of test [2]: T. cruzi growth inhibition in host cells, dose response, cell-based, plate reader, dry powder, set 2 (AID 652275). Format: functional.
A short description of test [3]: T. cruzi infection blockers in NIH3T3 cells – beta-gal luminescence, NIH3T3 host cells, confirmation (AID 2630). It is filed as functional, cell-based. Conditions: Mus musculus.
Test [4] is described as follows: anti-trypanosomal activity in BESM host cells – imaging, CA-I/72 strain, bovine embryo skeletal muscle, dry powder, dose response (AID 651885). It is filed as functional, cell-based.
A short description of test [5]: NIH/3T3 cell viability loss – mouse embryonic fibroblasts, dry powder, set 2, cytotoxicity control, dose response (AID 493247). Format: functional, cell-based. The settings on record: Fibroblast.
Test [6] can be described thus: Trypanosoma cruzi growth suppression in host cells – NIH3T3 host cells, beta-gal luminescence, confirmation (AID 2044).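 Note: intracellular parasites grown in NIH/3T3 mouse fibroblasts as host cells; luminescent beta-galactosidase reporter signal from transgenic T. cruzi replicating inside host cells; inhibitors lower the luminescence signal.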 Format: functional, cell-based.
Test [7] can be described thus: Luminescence Cell-Based Secondary HTS screen to identify cytotoxic compounds of NIH3T3 cells. [Related pubchem assays: 1885, 1968 ]. It is filed as functional.
Test [8] is described as follows: NIH3T3 cell viability loss – ATP luminescence, mouse fibroblasts, counter-screen, dose response (AID 2010).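 Note: cells exposed to compound for about 90 hours before reading.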 It is filed as functional, cell-based.
The test system of a further test is Trypanosoma cruzi. In words: anti-trypanosomal activity in host cells – cell-based, plate reader, dry powder, set 3, dose response (AID 493197). It is filed as functional.
Test [9] is described as follows: Luminescence Cell-Based/Microorganism Confirmation at Dose of Inhibitors of Trypanosoma cruzi Infection. [Related pubchem assays: 1885, 1968 ]. Format: functional.
For test [10], the target named is Nucleotide-binding oligomerization domain-containing protein 2 (Homo sapiens, UniProt Q9HC29). Put plainly: inhibition of NOD2-driven NF-kB reporter – cell-based, luminescence, uHTS, HEK293 (AID 1566). It is filed as functional.
The test system of test [11] is HEK293. Put plainly: inhibition of NOD1-driven NF-kB reporter – cell-based, luminescence, uHTS, primary screen (AID 1578). Format: functional. Conditions: Homo sapiens.
Test [12] is described as follows: cells. It is filed as functional, cell-based.
Test [13] deals with HEK293. In words: NOD2 signaling inhibitors in MDP-stimulated cells, cell-based, uHTS, luminescence (AID 2001). It is filed as functional. Conditions: Homo sapiens.
Test [14] can be described thus: cells. Format: functional, cell-based. The source holds these as a separate data set.
Test [15] concerns HEK293. In words: cells. It is filed as functional, cell-based. The settings on record: Homo sapiens.
Test [16] deals with HEK293. Put plainly: cells. Format: functional, cell-based. The settings on record: Homo sapiens. This is another data set of the same source.
For test [17], the system named is HEK293. In words: cells. Format: functional, cell-based. Conditions: Homo sapiens. The source holds these as a separate data set.
Test [18] deals with G-protein coupled receptor 55 (Homo sapiens, UniProt Q9Y2T6). Put plainly: inhibition of LPI-stimulated GPR55 beta-arrestin translocation – imaging, U2OS, beta-arrestin-GFP, LPI agonist, primary screen (AID 2013).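 Note: antagonist potency measured as reduced agonist-driven arrestin aggregation.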 Format: functional.

As usually defined, the IC50 is the point on the concentration scale where inhibition reaches its midpoint. As a reminder, the AC50 is the midpoint of the concentration-response curve, whichever way the signal moves. For orientation: EC50 means the concentration giving half of the maximal effect.

The source made the active and inactive calls. A value given as a limit tells only on which side of the number the result lay.

Chain of Phosphoethanolamine/phosphocholine phosphatase (Q8TCT1 whole entry): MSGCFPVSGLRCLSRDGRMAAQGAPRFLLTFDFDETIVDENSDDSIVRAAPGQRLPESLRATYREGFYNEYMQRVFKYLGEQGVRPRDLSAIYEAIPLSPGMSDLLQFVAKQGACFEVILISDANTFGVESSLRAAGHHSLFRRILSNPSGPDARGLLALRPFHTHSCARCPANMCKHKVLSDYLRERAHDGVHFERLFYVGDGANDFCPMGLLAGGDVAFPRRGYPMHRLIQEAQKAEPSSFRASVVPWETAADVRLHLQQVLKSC
Chain of Nucleotide-binding oligomerization domain-containing protein 2 (Q9HC29 whole entry, the tested form may be a part): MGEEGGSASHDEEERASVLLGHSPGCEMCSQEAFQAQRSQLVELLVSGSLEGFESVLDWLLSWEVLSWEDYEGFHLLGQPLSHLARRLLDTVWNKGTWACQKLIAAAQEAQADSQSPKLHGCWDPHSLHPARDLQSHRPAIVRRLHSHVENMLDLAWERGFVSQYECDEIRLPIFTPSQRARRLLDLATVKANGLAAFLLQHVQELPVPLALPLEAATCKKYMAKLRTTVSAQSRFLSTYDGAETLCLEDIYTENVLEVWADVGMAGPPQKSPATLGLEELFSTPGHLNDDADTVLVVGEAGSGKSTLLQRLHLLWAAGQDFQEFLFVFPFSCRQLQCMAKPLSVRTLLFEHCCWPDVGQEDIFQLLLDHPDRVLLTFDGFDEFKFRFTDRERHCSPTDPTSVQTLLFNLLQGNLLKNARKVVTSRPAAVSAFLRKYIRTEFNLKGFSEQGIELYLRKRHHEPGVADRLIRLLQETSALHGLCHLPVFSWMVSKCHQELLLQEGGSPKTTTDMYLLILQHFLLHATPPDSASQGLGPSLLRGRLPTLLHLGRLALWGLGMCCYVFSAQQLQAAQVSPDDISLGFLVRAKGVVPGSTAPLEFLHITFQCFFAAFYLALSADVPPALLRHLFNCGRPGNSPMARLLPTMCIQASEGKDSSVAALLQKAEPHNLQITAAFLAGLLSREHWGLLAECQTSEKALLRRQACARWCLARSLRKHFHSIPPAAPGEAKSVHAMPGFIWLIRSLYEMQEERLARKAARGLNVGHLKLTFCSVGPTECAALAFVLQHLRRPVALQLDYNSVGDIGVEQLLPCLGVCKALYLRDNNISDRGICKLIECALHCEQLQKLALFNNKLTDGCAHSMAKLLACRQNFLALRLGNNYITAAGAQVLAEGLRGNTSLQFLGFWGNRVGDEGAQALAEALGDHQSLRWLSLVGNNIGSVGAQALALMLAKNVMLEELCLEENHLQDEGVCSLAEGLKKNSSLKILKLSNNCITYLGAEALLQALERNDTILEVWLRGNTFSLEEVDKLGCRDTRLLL
Chain of G-protein coupled receptor 55 (Q9Y2T6 whole entry): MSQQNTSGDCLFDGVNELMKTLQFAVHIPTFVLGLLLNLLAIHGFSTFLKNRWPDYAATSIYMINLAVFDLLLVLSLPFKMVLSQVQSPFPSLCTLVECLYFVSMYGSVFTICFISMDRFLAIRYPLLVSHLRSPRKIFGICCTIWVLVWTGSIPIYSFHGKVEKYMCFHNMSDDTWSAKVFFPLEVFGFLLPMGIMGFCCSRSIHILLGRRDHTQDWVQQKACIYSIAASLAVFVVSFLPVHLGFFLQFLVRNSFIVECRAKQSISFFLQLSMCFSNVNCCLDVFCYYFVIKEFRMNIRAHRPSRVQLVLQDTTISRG
Chain of Phosphomannomutase 2 (O15305 whole entry): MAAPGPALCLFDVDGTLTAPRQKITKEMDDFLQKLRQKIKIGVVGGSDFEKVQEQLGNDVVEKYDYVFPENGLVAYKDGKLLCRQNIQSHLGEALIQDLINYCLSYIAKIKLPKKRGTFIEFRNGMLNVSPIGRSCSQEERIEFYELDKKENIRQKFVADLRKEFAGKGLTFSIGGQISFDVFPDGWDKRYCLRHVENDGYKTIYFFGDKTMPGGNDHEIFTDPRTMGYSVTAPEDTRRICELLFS

In the case of `CC(C)(C)c1ccc(-n2sc3ccccc3c2=O)cc1`, the figures for the IC50 (in test [1]; at Phosphomannomutase 2) were 54.3 µM (inactive) and 82.5 µM (active), respectively.
Turning to `COc1ccc(CCN(C)C(=O)C2CCCN(Cc3ccc(OC)c(OC)c3)C2)cc1OC` (stereo not given), the AC50 is 252 nM (active) in [2], 80.4 µM (active) in test [5] and 260 nM (active) with Trypanosoma cruzi. For the same molecule, the EC50 is 192 nM (active) in test [3]; < 100 nM (active) in test [6]; > 195 µM (not active) in test [7]; > 60 µM (not active) in test [8]; 192 nM (active) in test [9]. Further, the IC50 in test [4] was > 20 µM (inactive).
`O=C(N/N=C/c1ccccn1)c1ccc(Cl)cc1`: the EC50 in test [10] was > 20 µM (inactive); in the test on HEK293 [11], > 20 µM (inactive); in the test “cells [12]” it was > 350 µM (not active); in the test “cells [14]” it was > 350 µM (not active). The IC50 is 7.14 µM (inactive) in the test on HEK293 [13], > 20 µM (inactive) with HEK293 [15], > 20 µM (inactive) in the test with HEK293 [16] and > 20 µM (inactive) in the test with HEK293 [17].
As for `C=CCN1C(=O)/C(=C/Nc2ccc(Cc3ccncc3)cc2)C(=O)NC1=S`, in test [18], the IC50 was 543 nM (active).
